These are literature values, as cited in patent publication US10952984B2, “All-trans retinoic acid injectant and application” (HIGHFIELD BIOPHARMACEUTICAL CORPORATION, priority 2016, dated 2021).

Assay in data set [1]: not given
This is another data set of the same source.

In brackets after ≈: the same amount, converted by molar mass. A value given as a limit tells only on which side of the number the result lay.

In general, bioavailability refers to the share of a dose that reaches the circulation, judged against a reference dose that is usually intravenous. Turning to `CC1=C(/C=C/C(C)=C/C=C/C(C)=C/C(=O)O)C(C)(C)CCC1` [all-trans retinoic acid], the water solubility is 4.77 µg/mL (≈ 15.9 µM). Moreover, for the setting “prior art”, the “solubility of the all-trans retinoic acid in the prior art” value is 10 µg/mL. Further, in data set [1] (oral dosage forms, clinical studies), the bioavailability was at most 30%. Besides, the plasma half-life entry in data set [1] (prior art) is “short”.
